Results: patent US20260015339A1, “CALIX[4]ARENES WITH HIGH ANTICANCER ACTIVITY” (UNIVERSITE GRENOBLE ALPES, priority 2023, published 2026)

Experiments:
[1] = system: PC9 human lung cancer cells; assay: MTS cytotoxicity assay, combination with CuCl2, PC9; conditions: 72 hours
Description: PC9 human lung cancer cells were seeded in 96-well plates together with the calix[4]arene of the formula (2) and CuCl2. Cells were grown in RPMI-1640 supplemented with GlutaMAX™ (Gibco™) and fetal calf serum (FCS, 10%) treated with a broad range of concentrations of the calix[4]arene of the formula (2) or/and CuCl2 from Merck. After 72 hours of treatment, the cytotoxicity was measured by means of the IC50 value, using the kit “CellTiter 96R AQuous One Solution Cell Proliferation Assay (MTS)” from Promega™. Following 30 minutes of incubation with the MTS reagent, the endpoint measurements were done in triplicate at 485 nm, using a fluorescence plate reader.

[2] = system: H322 lung carcinoma cells; assay: MTS cytotoxicity assay, combination with CuCl2, H322; conditions: 72 hours
Description: H322 lung carcinoma cells were seeded in 96-well plates together with the calix[4]arene of the formula (2) and CuCl2. Cells were grown in RPMI-1640 supplemented with GlutaMAX™ (Gibco™) and fetal calf serum (FCS, 10%) treated with a broad range of concentrations of the calix[4]arene of the formula (2) or/and CuCl2 from Merck. After 72 hours of treatment, the cytotoxicity was measured by means of the IC50 value, using the kit “CellTiter 96R AQuous One Solution Cell Proliferation Assay (MTS)” from Promega™ Following 30 minutes of incubation with the MTS reagent, the endpoint measurements were done in triplicate at 485 nm, using a fluorescence plate reader.

[3] = system: A549 human lung cancer cells; assay: MTS cytotoxicity assay, combination with CuCl2, A549; conditions: 72 hours
Description: A549 human lung cancer cells were seeded in 96-well plates together with the calix[4]arene of the formula (2) and CuCl2. Cells were grown in RPMI-1640 supplemented with GlutaMAX™ (Gibco™) and fetal calf serum (FCS, 10%) treated with a broad range of concentrations of the calix[4]arene of the formula (2) or/and CuCl2 from Merck. After 72 hours of treatment, the cytotoxicity was measured by means of the IC50 value, using the kit “CellTiter 96R AQuous One Solution Cell Proliferation Assay (MTS)” from Promega™. Following 30 minutes of incubation with the MTS reagent, the endpoint measurements were done in triplicate at 485 nm, using a fluorescence plate reader.

[4] = system: Hepatocellular carcinoma (HepG2/C3A) cells; assay: MTT cytotoxicity assay (DL50); format: cell-based; conditions: 24 hours of incubation
Description: Cytotoxicity was evaluated using the MTT assay. 1.10^4 cells per well were seeded in a flat-bottom 96-well plate and were incubated for 48 hours at 37° C. with 5% CO2 before addition of the different calix[4]arenes at concentrations up to 200 μM. In all experiments, each condition was performed in triplicate in the plate. Besides, each experiment was done three times independently. After 24 hours of incubation in presence of the compounds, medium was discarded, cells were rinsed with PBS and 100 μL of medium containing 0.5 mg/mL of MTT was added to each well. After 30 minutes of incubation at 37° C., MTT solution was discarded and formazan crystals formed were dissolved in 150 μL of 4 mM HCl, 0.1% NP40 in isopropanol. The absorbance in the wells were read in a microplate reader (Tecan microplate reader-550) at 570 nm.

[5] = Cu^+ binding by 1H NMR titration; conditions: 1H NMR titration with Cu(MeCN)4BF4, CD3CN/CDCl3 4/1, 298 K
Description: Binding abilities and complexation constants of the examples of calix[4]arenes of the present invention and the comparative examples with Cu^+ were evaluated by ^1H NMR titrations at 298 K using copper(I)tetrakis(acetronitrile)tetrafluoroborate.
For example, for each separate calix[4]arene a stock solution of the tested calix[4]arene was prepared in a CD3CN/CDCl3, 4/1 mixture. Using this stock solution, a Cu(MeCN)4BF4 solution was prepared and added by steps of 0.25 equivalent of copper(I) up until 1 equivalent and then by steps of 0.5 equivalent until a total of at least 2 equivalents. ^1H NMR spectra were recorded at a 400 MHz spectrometer at 298 K for the stock solutions of the calix[4]arenes and after each addition of Cu(MeCN)4BF4.
Calix[4]arenes for which a gradual change of the chemical shifts of the ^1H NMR signals (>0.1 ppm for at least one of the signals) was observed upon addition of up to 4-5 equivalents of Cu(MeCN)4BF4 were considered to show weak binding.

[6] = Cu^+ transport into liposomes with encapsulated BCS; conditions: POPC/cholesterol 7:3 LUVs, calix[4]arene to lipid 1:1000, 50 μM copper gradient, F/F0 after 600 s
Description: The ability of the examples of calix[4]arenes of the invention and the comparative examples to be delivered into a lipidic bilayer membrane of a liposome from a solution and their capacity to then act as a transporter of Cu^+ was evaluated using bathocuproine disulphonate (hereafter abbreviated “BCS”) encapsulated in large unilamellar vesicles (LUVs, also referred to as liposomes) composed of 1-palmitoyl-2-oleoyl-sn-glycero-3-phosphocholine and cholesterol in a 7:3 ratio.
BCS is a fluorescent water soluble phenantroline derivative that can be used as fluorescent dye for the sensing of Cu^+ through the formation of a non-fluorescent 2:1 complex.
Stock solution of lipids were prepared using deacidified CHCl3 and stored in a freezer. CHCl3 was deacidified by passing through activated basic alumina. The lipids used to prepare the liposomes were 2-oleoyl-1-palmitoyl-sn-glycero-3-phosphocholine (POPC), (purity ≥99%) and cholesterol (purity of 95%). 50 mM sodium phosphate buffer were prepared with Millipore water at pH 7 (±0.1) by mixing the solution of the mono- and the di-protonated phosphate salts. The solution of the dye (BCS) was prepared at 0.5 mM concentration in phosphate buffer.
The lipids solutions were mixed in different ratios in a 5 mL round bottom flask. The POPC/cholesterol molar ratio was 7:3 in all experiments. The total amount of lipids per batch varied depending on the amount of liposomes solution required for the experiment. After mixing the lipid solutions in a round bottom flask, the chloroform was evaporated under a gentle air flow and the resulting lipid film was dried at high vacuum for at least an hour. 500 μL of the BCS solution in phosphate buffer and a magnetic stir bar were added to the flask. The flask was then sonicated for 30 seconds and placed under magnetic agitation for at least an hour. The solution was frozen with liquid nitrogen and heated back to room temperature with warm water ten times to form large unilamellar vesicles (LUVs). The liposome solution was extruded 29 times, using an extrusion kit equipped with a membrane with 200 nm pores. Subsequently, the solution was eluted with the buffer solution used for the experiment through a size exclusion column (Sephadex G-25) to remove the external BCS and then diluted with phosphate buffer to obtain a concentration of 0.4 mM in lipids.
Solutions of the calix[4]arenes were prepared at a concentration of 0.24 mM in DMSO and 5 μL of the solution was added 2 minutes before each transport measurement.
Alternatively, calix[4]arenes were pre-incorporated by combining the calix[4]arene (dissolved in chloroform) with the lipids prior to the evaporation of the chloroform to obtain a lipid film. The concentrations and volumes were chosen to obtain a calix[4]arene to lipid of 1:1000.
Fluorescence measurements were performed with a Horiba FluoroMax 4 spectrometer using a 4-faced quartz cuvette (10 mm×10 mm). For the Cu^+ transport assay, the excitation was set at 278 nm and emission was recorded at 393 nm. These values correspond to the excitation and emission maxima of BCS encapsulated inside LUVs.
The Cu^+ solutions added to the liposomes were obtained by dissolving Cu(MeCN)4BF4 in MeCN at 15.25 mM concentration. The copper solution was then diluted by a factor 5 in a phosphate buffer during the first 30 seconds of the experiment to reach a copper concentration of 3.05 mM. 50 μL of the diluted copper solution was added to 3 mL of liposomes, resulting in a copper gradient of 50 μM. The fluorescence level was monitored for 600 seconds after the addition of the copper solution.
For each run the initial plateau and the initial vertical drop (due to the binding of the exterior dye with Cu^+ and the dilution, 1-4 seconds after the addition) were removed. Then the signal was normalised by dividing the fluorescence values (F) by the value at t=0 second (F0). […]

[7] = system: H322 lung carcinoma cells; assay: MTS cytotoxicity assay on H322; format: cell-based; conditions: NCI-H322; H322, 72 hours of treatment
Description: H322 lung carcinoma cells were seeded in 96-well plates together with the calix[4]arene of the formula (2). Cells were grown in RPMI-1640 supplemented with GlutaMAX™ (Gibco™) and fetal calf serum (FCS, 10%) and treated with a broad range of concentrations of the calix[4]arene of the formula (2). After 72 hours of treatment, the cytotoxicity was measured by means of the IC50 value, using the kit “CellTiter 96R AQuous One Solution Cell Proliferation Assay (MTS)” from Promega™. Following 30 minutes of incubation with the MTS reagent, the endpoint measurements were done in triplicate at 485 nm, using a fluorescence plate reader.
H322 lung carcinoma cells were seeded in 96-well plates together with the compound of the 2nd comparative example of the formula (XI). Cells were grown in RPMI-1640 supplemented with GlutaMAX™ (Gibco™) and fetal calf serum (FCS, 10%) and treated with a broad range of concentrations of the 2nd comparative example of the formula (XI). After 72 hours of treatment, the cytotoxicity was measured by means of the IC50 value, using the kit “CellTiter 96R AQuous One Solution Cell Proliferation Assay (MTS)” from Promega™. Following 30 minutes of incubation with the MTS reagent, the endpoint measurements were done in triplicate at 485 nm, using a fluorescence plate reader.
H322 lung carcinoma cells were seeded in 96-well plates together with the 1st comparative example of the formula (X). Cells were grown in RPMI-1640 supplemented with GlutaMAX™ (Gibco™) and fetal calf serum (FCS, 10%) and treated with a broad range of concentrations of the compound of the formula (X). After 72 hours of treatment, the cytotoxicity was measured by means of the IC50 value, using the kit “CellTiter 96R AQuous One Solution Cell Proliferation Assay (MTS)” from Promega™. Following 30 minutes of incubation with the MTS reagent, the endpoint measurements were done in triplicate at 485 nm, using a fluorescence plate reader.
H322 lung carcinoma cells were seeded in 96-well plates together with the tested calix[4]arenes. Cells were grown in RPMI-1640 supplemented with GlutaMAX™ (Gibco™) and fetal calf serum (FCS, 10%) and treated with a broad range of concentrations of the tested calix[4]arenes. After 72 hours of treatment, the cytotoxicity was measured by means of the IC50 value, using the kit “CellTiter 96R AQuous One Solution Cell Proliferation Assay (MTS)” from Promega™. Following 30 minutes of incubation with the MTS reagent, the endpoint measurements were done in triplicate at 485 nm, using a fluorescence plate reader.

Compound | IC50 [4] [µM] | Cu^+ binding [5] | Cu^+ transport [6] | IC50 [7] [µM] | also measured
[Cl][Cu][Cl] [Cu^2+, CuCl2] |  |  |  |  | percentage of cell viability ([1]; PC9, Cu^2+ 1 μM alone ((2) 0 μM)): 90.9%; percentage of cell viability ([1]; PC9, Cu^2+ 5 μM alone ((2) 0 μM)): 87.1%; percentage of cell viability ([1]; PC9, Cu^2+ 10 μM alone ((2) 0 μM)): 81.0%; percentage of cell viability ([1]; PC9, Cu^2+ 25 μM alone ((2) 0 μM)): 77.1%; percentage of cell viability ([1]; PC9, Cu^2+ 50 μM alone ((2) 0 μM)): 68.8%; percentage of cell viability ([2]; H322, Cu^2+ 1 μM alone ((2) 0 μM)): 87.2%; percentage of cell viability ([2]; H322, Cu^2+ 5 μM alone ((2) 0 μM)): 83.3%; percentage of cell viability ([2]; H322, Cu^2+ 10 μM alone ((2) 0 μM)): 79.5%; percentage of cell viability ([2]; H322, Cu^2+ 25 μM alone ((2) 0 μM)): 72.9%; percentage of cell viability ([2]; H322, Cu^2+ 50 μM alone ((2) 0 μM)): 60.6%; percentage of cell viability ([3]; A549, Cu^2+ 1 μM alone ((2) 0 μM)): 89.4%; percentage of cell viability ([3]; A549, Cu^2+ 5 μM alone ((2) 0 μM)): 88.1%; percentage of cell viability ([3]; A549, Cu^2+ 10 μM alone ((2) 0 μM)): 84.6%; percentage of cell viability ([3]; A549, Cu^2+ 25 μM alone ((2) 0 μM)): 85.6%; percentage of cell viability ([3]; A549, Cu^2+ 50 μM alone ((2) 0 μM)): 79.4%
CCCOc1c2cccc1Cc1cccc(c1OCc1nccn1C)Cc1cccc(c1OCCC)Cc1cccc(c1OCc1nccn1C)C2 [formula (2)] | 3.1 |  |  |  | 
Oc1c(I)cc(Cl)c2cccnc12 [Clioquinol, clioquinol, reference compound] | 67 |  |  |  | 
COc1c2cccc1Cc1cccc(c1OCc1nccn1C)Cc1cccc(c1OC)Cc1cccc(c1OCc1nccn1C)C2 [(5)] | 23 | Strong binding (means an affinity constant (Ka) equal or greater than 10^5 M^−1) | Yes (means that a significant decrease of the fluorescence of encapsulated BCS was observed upon addition of Cu^+ to the liposomes (F/F0<0.65 after 600 s)) | > 10 | 
CCCOc1c2cc([N+](=O)[O-])cc1Cc1cccc(c1OCc1nccn1C)Cc1cc([N+](=O)[O-])cc(c1OCCC)Cc1cccc(c1OCc1nccn1C)C2 [(7)] | 10.9 | Strong binding (means an affinity constant (Ka) equal or greater than 10^5 M^−1) | Yes (means that a significant decrease of the fluorescence of encapsulated BCS was observed upon addition of Cu^+ to the liposomes (F/F0<0.65 after 600 s)) | 5 | 
C=CCOc1c2cccc1Cc1cccc(c1OCc1nccn1C)Cc1cccc(c1OCC=C)Cc1cccc(c1OCc1nccn1C)C2 [(3)] | 4.5 | Strong binding (means an affinity constant (Ka) equal or greater than 10^5 M^−1) | Yes (means that a significant decrease of the fluorescence of encapsulated BCS was observed upon addition of Cu^+ to the liposomes (F/F0<0.65 after 600 s)) | 5 | 
CCCOc1c2cccc1Cc1cccc(c1OCc1ncco1)Cc1cccc(c1OCCC)Cc1cccc(c1OCc1ncco1)C2 [(9)] | 70 | Weak binding (means a change of the chemical shifts of the ^1H NMR signals (>0.1 ppm for at least one of the signals) is observed upon addition of up to 4-5 equivalents of Cu(MeCN)4BF4) | Yes (means that a significant decrease of the fluorescence of encapsulated BCS was observed upon addition of Cu^+ to the liposomes (F/F0<0.65 after 600 s)) |  | 
CCCOc1c2cccc1Cc1cccc(c1OCc1ccccn1)Cc1cccc(c1OCCC)Cc1cccc(c1OCc1ccccn1)C2 [(38)] |  | Strong binding (means an affinity constant (Ka) equal or greater than 10^5 M^−1) | Yes (means that a significant decrease of the fluorescence of encapsulated BCS was observed upon addition of Cu^+ to the liposomes (F/F0<0.65 after 600 s)) |  | 
CCOC(=O)COc1c2cccc1Cc1cccc(c1OCc1nccn1C)Cc1cccc(c1OCC(=O)OCC)Cc1cccc(c1OCc1nccn1C)C2 [(4)] | 3.1 | Strong binding (means an affinity constant (Ka) equal or greater than 10^5 M^−1) | Yes (means that a significant decrease of the fluorescence of encapsulated BCS was observed upon addition of Cu^+ to the liposomes (F/F0<0.65 after 600 s)) | 6 | 
CCCOc1c2cccc1Cc1cccc(c1OCc1nc3ccccc3n1C)Cc1cccc(c1OCCC)Cc1cccc(c1OCc1nc3ccccc3n1C)C2 [(8)] | 128 | Strong binding (means an affinity constant (Ka) equal or greater than 10^5 M^−1) | Yes (means that a significant decrease of the fluorescence of encapsulated BCS was observed upon addition of Cu^+ to the liposomes (F/F0<0.65 after 600 s)) |  | 
CCCOc1c2cccc1Cc1cccc(c1OCc1nccs1)Cc1cccc(c1OCCC)Cc1cccc(c1OCc1nccs1)C2 [(10)] |  | Weak binding (means a change of the chemical shifts of the ^1H NMR signals (>0.1 ppm for at least one of the signals) is observed upon addition of up to 4-5 equivalents of Cu(MeCN)4BF4) | Yes (means that a significant decrease of the fluorescence of encapsulated BCS was observed upon addition of Cu^+ to the liposomes (F/F0<0.65 after 600 s)) |  | 
